How the values were obtained:
whole blood [1] = assay: ROTEM whole blood coagulation with dialyzed Dade Innovin (recombinant tissue factor) 0.569 μg/mL + Ca 12 mM + CTI 20 μg/mL + PKSI-527 40 μM; assay type: cell-based; details: Ex28; for CT (clotting time): Innovin 0.569 μg/mL+Ca+CTI+PKSI-527, ARIXTRA 0.5 ug/mL
Experimental: ROTEM was used to analyze blood coagulation.
Blood was collected using a blood collection tube containing 3.2% sodium citrate manufactured by Terumo Corporation.
Blood coagulation was analyzed in the case of having added 4% (final concentration 0.569 μg/mL) of Dade Innovin (recombinant tissue factor: Sysmex Corporation) having being diluted by 50 times after dialysis, calcium chloride (Ca; final concentration 12 mM), heparan sulfate (final concentration 0 or 2 μg/mL), CTI (final concentration 20 μg/mL), PKSI-527 (final concentration 40 μM) without and with a soluble thrombomodulin (rTM: final concentration 30 nM) further having been added, as well as with an APC inhibitory aptamer (HS02-44G; final concentration 1 μM) in addition to 30 nM of soluble thrombomodulin.
Blood coagulation was analyzed in the case of having added 4% (final concentration 0.569 μg/mL) of 50-fold diluted Dade Innovin (recombinant tissue factor: Sysmex Corporation) after dialysis, calcium chloride (Ca; final concentration 12 mM), low molecular weight heparan (trade name FRAGMIN; Pfizer) (final concentration 0 or 0.2 U/mL), CTI (final concentration 20 μg/mL), and PKSI-527 (final concentration 40 μM) with and without a soluble thrombomodulin (rTM; final concentration 30 nM) further having been added, as well as with an APC inhibitory aptamer (HS02-44G; final concentration 1 μM) in addition to 30 nM soluble thrombomodulin.
ROTEM was used to analyze coagulation.
Blood coagulation was analyzed in the case of having added 4% (final concentration 0.569 μg/mL) of 50-fold diluted Dade Innovin (recombinant tissue factor: Sysmex Corporation) after dialysis, calcium chloride (Ca; final concentration 12 mM), ARIXTRA (final concentration 0 or […]), CTI (final concentration 20 μg/mL), and PKSI-527 (final concentration 40 μM), without and with thrombomodulin (rTM; final concentration 30 nM) further having been added, as well as with an APC inhibitory aptamer (HS02-44G; final concentration 1 μM) in addition to soluble thrombomodulin 30 nM.

whole blood [2] = assay: ROTEM whole blood coagulation with rabbit brain-derived tissue thromboplastin (TP) + Ca 12 mM (CTI 20 μg/mL, PKSI-527 40 μM where stated); assay type: cell-based; details: for prolongation of blood coagulation by addition of rTM: Ex5-8, TP 0.9 μg/mL+Startem, FRAGMIN 0.2 U/mL or ARIXTRA 0.5 μg/mL instead of heparan sulfate, rTM 20 or 30 nM
[3] = unfractionated heparin 0.1 U/mL
[4] = Ex20, TP 16.6 μg/mL+Ca+CTI+PKSI-527, ARIXTRA 0.5 μg/mL, no rTM
[5] = Ex20, TP 16.6 μg/mL+Ca+CTI+PKSI-527, ARIXTRA 0.5 μg/mL, rTM 100 nM
[6] = Ex20, TP 16.6 μg/mL+Ca+CTI+PKSI-527, ARIXTRA 2.0 μg/mL, no rTM
[7] = Ex20, TP 16.6 μg/mL+Ca+CTI+PKSI-527, ARIXTRA 2.0 μg/mL, rTM 100 nM
[8] = Ex20, TP 16.6 μg/mL+Ca+CTI+PKSI-527, ARIXTRA 3.0 μg/mL, no rTM
[9] = Ex20, TP 16.6 μg/mL+Ca+CTI+PKSI-527, ARIXTRA 3.0 μg/mL, rTM 100 nM
[10] = Ex20, TP 16.6 μg/mL+Ca+CTI+PKSI-527, ARIXTRA 4.0 μg/mL, no rTM
[11] = Ex20, TP 16.6 μg/mL+Ca+CTI+PKSI-527, ARIXTRA 4.0 μg/mL, rTM 100 nM
[12] = Ex20, TP 16.6 μg/mL+Ca+CTI+PKSI-527, ARIXTRA 5.0 μg/mL, no rTM
[13] = Ex20, TP 16.6 μg/mL+Ca+CTI+PKSI-527, ARIXTRA 5.0 μg/mL, rTM 100 nM
[14] = Ex21, TP 0.64 μg/mL+Ca+CTI+PKSI-527, ARIXTRA 0.5 μg/mL, no rTM
[15] = Ex21, TP 0.64 μg/mL+Ca+CTI+PKSI-527, ARIXTRA 0.5 μg/mL, rTM 30 nM
[16] = Ex22, TP 0.055 μg/mL+Ca+CTI+PKSI-527, ARIXTRA 0.05 μg/mL, no rTM
[17] = Ex22, TP 0.055 μg/mL+Ca+CTI+PKSI-527, ARIXTRA 0.05 μg/mL, rTM 20 nM
[18] = Ex22, TP 0.055 μg/mL+Ca+CTI+PKSI-527, ARIXTRA 0.20 μg/mL, no rTM
[19] = Ex22, TP 0.055 μg/mL+Ca+CTI+PKSI-527, ARIXTRA 0.20 μg/mL, rTM 20 nM
[20] = Ex19, TP 16.6 μg/mL+Ca+CTI+PKSI-527, unfractionated heparin 0.1 U/mL, no rTM
[21] = Ex19, TP 16.6 μg/mL+Ca+CTI+PKSI-527, unfractionated heparin 0.1 U/mL, rTM 100 nM
[22] = Ex19, TP 16.6 μg/mL+Ca+CTI+PKSI-527, unfractionated heparin 0.2 U/mL, no rTM
[23] = Ex19, TP 16.6 μg/mL+Ca+CTI+PKSI-527, unfractionated heparin 0.2 U/mL, rTM 100 nM
[24] = Ex19, TP 16.6 μg/mL+Ca+CTI+PKSI-527, unfractionated heparin 0.3 U/mL, no rTM
[25] = Ex19, TP 16.6 μg/mL+Ca+CTI+PKSI-527, unfractionated heparin 0.3 U/mL, rTM 100 nM

Q: With `CO[C@H]1O[C@H](COS(=O)(=O)O)[C@@H](O[C@@H]2O[C@@H](C(=O)O)[C@@H](O[C@H]3O[C@H](COS(=O)(=O)O)[C@@H](O[C@@H]4O[C@H](C(=O)O)[C@@H](O[C@H]5O[C@H](COS(=O)(=O)O)[C@@H](O)[C@H](O)[C@H]5NS(=O)(=O)O)[C@H](O)[C@H]4O)[C@H](OS(=O)(=O)O)[C@H]3NS(=O)(=O)O)[C@H](O)[C@H]2OS(=O)(=O)O)[C@H](O)[C@H]1NS(=O)(=O)O` [ARIXTRA, fondaparinux sodium] as the compound, how does the “CT (clotting time)” value (whole blood [1]; no rTM) read?
A: Its value is 466 s.

Q: And the “CT (clotting time)” value (whole blood [1]; rTM 30 nM)?
A: The value was 996 s.

Q: And the “CT (clotting time)” value (whole blood [1]; rTM 30 nM+APC inhibitory aptamer 1 μM)?
A: Its value is 474 s.

Q: And the “anticoagulation ability of the soluble thrombomodulin” value (whole blood [1]; addition of ARIXTRA 0.5 μg/mL, rTM 30 nM)?
A: The value was “markedly enhanced”.

Q: What about the “prolongation of blood coagulation by addition of rTM” value (whole blood [2]; [3]) of the same compound?
A: Its value is “markedly prolonged”.

Q: And the CT values (whole blood [2]; Ex20, TP 16.6 μg/mL+Ca+CTI+PKSI-527, ARIXTRA 0, 0.5 μg/mL, no rTM)?
A: The CT values was less than 1 min.

Q: And the “CFT (clot formation time)” value (whole blood [2]; [4])?
A: The value was 86 s.

Q: What about the “CT (clotting time)” value (whole blood [2]; [4]) of the same compound?
A: The value was 52 s.

Q: What about the “CFT (clot formation time)” value (whole blood [2]; [5]) of the same compound?
A: The value was 69 s.

Q: What about the “CT (clotting time)” value (whole blood [2]; [5]) of the same compound?
A: Its value is 68 s.

Q: And the “CFT (clot formation time)” value (whole blood [2]; [6])?
A: The value was 64.0 s.

Q: And the “CT (clotting time)” value (whole blood [2]; [6])?
A: The value was 64 s.

Q: What about the “CFT (clot formation time)” value (whole blood [2]; [7]) of the same compound?
A: The value was 61 s.

Q: What about the “CT (clotting time)” value (whole blood [2]; [7]) of the same compound?
A: The value was 96 s.

Q: And the “CFT (clot formation time)” value (whole blood [2]; [8])?
A: The value was 78.0 s.

Q: And the “CT (clotting time)” value (whole blood [2]; [8])?
A: Its value is 72 s.

Q: What about the “CFT (clot formation time)” value (whole blood [2]; [9]) of the same compound?
A: Its value is 68 s.

Q: What about the “CT (clotting time)” value (whole blood [2]; [9]) of the same compound?
A: The value was 112 s.

Q: And the “CFT (clot formation time)” value (whole blood [2]; [10])?
A: Its value is 70.0 s.

Q: What about the “CT (clotting time)” value (whole blood [2]; [10]) of the same compound?
A: Its value is 75 s.

Q: What about the “CFT (clot formation time)” value (whole blood [2]; [11]) of the same compound?
A: Its value is 77 s.

Q: What about the “CT (clotting time)” value (whole blood [2]; [11]) of the same compound?
A: Its value is 118 s.

Q: And the “CFT (clot formation time)” value (whole blood [2]; [12])?
A: The value was 77.0 s.

Q: And the “CT (clotting time)” value (whole blood [2]; [12])?
A: Its value is 78 s.

Q: What about the “CFT (clot formation time)” value (whole blood [2]; [13]) of the same compound?
A: The value was 105 s.

Q: What about the “CT (clotting time)” value (whole blood [2]; [13]) of the same compound?
A: Its value is 114 s.

Q: And the “CFT (clot formation time)” value (whole blood [2]; [14])?
A: The value was 74 s.

Q: And the “CT (clotting time)” value (whole blood [2]; [14])?
A: Its value is 294 s.

Q: And the “CFT (clot formation time)” value (whole blood [2]; [15])?
A: The value was 794 s.

Q: And the “CT (clotting time)” value (whole blood [2]; [15])?
A: The value was 581 s.

Q: And the “CFT (clot formation time)” value (whole blood [2]; [16])?
A: The value was 145 s.

Q: What about the “CT (clotting time)” value (whole blood [2]; [16]) of the same compound?
A: The value was 619 s.

Q: And the “CFT (clot formation time)” value (whole blood [2]; [17])?
A: Its value is 403 s.

Q: And the “CT (clotting time)” value (whole blood [2]; [17])?
A: The value was 1074 s.

Q: What about the “CFT (clot formation time)” value (whole blood [2]; [18]) of the same compound?
A: The value was 232 s.

Q: What about the “CT (clotting time)” value (whole blood [2]; [18]) of the same compound?
A: The value was 799 s.

Q: What about the blood clotting time (whole blood [2]; Ex22, TP 0.055 μg/mL+Ca+CTI+PKSI-527, ARIXTRA 0.2 μg/mL, rTM 20 nM) of the same compound?
A: Its blood clotting time is no less than 1 h.

Q: And the “CFT (clot formation time)” value (whole blood [2]; [19])?
A: Its value is “No CFT”.

Q: And the “CT (clotting time)” value (whole blood [2]; [19])?
A: Its value is “No CT”.

Q: For Unfractionated heparin, which “prolongation of blood coagulation by addition of rTM” value (whole blood [2]; [3]) is on record?
A: The value was “markedly prolonged”.

Q: And the “CFT (clot formation time)” value (whole blood [2]; [20])?
A: Its value is 98 s.

Q: And the “CT (clotting time)” value (whole blood [2]; [20])?
A: The value was 53 s.

Q: What about the “CFT (clot formation time)” value (whole blood [2]; [21]) of the same compound?
A: The value was 93 s.

Q: And the “CT (clotting time)” value (whole blood [2]; [21])?
A: Its value is 66 s.

Q: What about the “CFT (clot formation time)” value (whole blood [2]; [22]) of the same compound?
A: The value was 82.0 s.

Q: And the “CT (clotting time)” value (whole blood [2]; [22])?
A: Its value is 73 s.

Q: What about the “CFT (clot formation time)” value (whole blood [2]; [23]) of the same compound?
A: The value was 102 s.

Q: And the “CT (clotting time)” value (whole blood [2]; [23])?
A: Its value is 89 s.

Q: What about the “CFT (clot formation time)” value (whole blood [2]; [24]) of the same compound?
A: The value was 86.0 s.

Q: And the “CT (clotting time)” value (whole blood [2]; [24])?
A: Its value is 69 s.

Q: And the “CFT (clot formation time)” value (whole blood [2]; [25])?
A: The value was 161 s.

Q: And the “CT (clotting time)” value (whole blood [2]; [25])?
A: Its value is 182 s.
